Test results taken from patent EP3248604A1, “AGENTS FOR MODULATION OF WNT-TCF SIGNALLING AND USES THEREOF” (UNIVERSITE DE GENEVE, priority 2016, dated 2017).
Read-outs that look alike come from different tables or passages of the source.

Experiments:
WNT-TCF targets [1] = assay: RT-qPCR gene expression in Ls174T cells; format: cell-based, human; details: for fold induction at 0.5 µM / fold induction at 5 µM: Homo sapiens
Description: (§1) RT-qPCR was performed as in Melotti et al. (2014, supra) using BioRad equipment and reagents. Cells cultured in nitro were treated with the desired concentration of drug in DMEM-F12 and reduced serum (2.5% FBS) for 16h, unless otherwise noted, and collected in Trizol (Sigma) before total RNA extraction and cDNA synthesis. Primers were as in Table 1. HPRT (gene encoding Hypoxanthine phosphoribosyltransferase 1) and βACTIN were used as housekeeping controls for normalization.
Compounds have been tested for the transcriptional modulation of a restricted TCF signature in human colon cancer Ls174T cells. These included the direct targets AXIN2 (gene encoding a protein axis inhibition protein 2), LGR5 (gene encoding encodes leucine-rich repeat-containing G-protein coupled receptor 5) and cMYC (a regulator gene encoding a transcription factor), which should be repressed by WNT-TCF response antagonists and p21 (or CDKN1A, gene encoding a cyclin-dependent kinase inhibitor that inhibits the complexes of CDK2 and CDK1), which should be induced.

CC14 cells = assay: Epithelial island morphology of CC14 cells; format: cell-based, human; details: 24h; for epithelial island morphology: 1 µM
Description: Similar phenotypes were only observed at 10 µM of CAP1 or 5 µM of CAP3. CAP2 was thus chosen for further detailed analyses.

WNT-TCF targets [2] = assay: RT-qPCR gene expression in CC14 primary colon cancer cells; format: cell-based, human; parameters: cMYC expression: scale not given here; details: 100 nM; Example 2 cells (CC14)
Description: as §1
Primary colon cells CC14 were cultured in DMEM-F12 with 10% FBS under standard in vitro conditions.
Primary colon cells CC14, CC36 and mCC11, colon cancer cell lines DLD1, HT29, Ls174T, melanoma cell line MeWo, glioblastoma cell lines U87 and U251, and the lung cancer cell line H358 were cultured in DMEM-F12 with 10% FBS under standard in nitro conditions.

cell proliferation = assay: BrdU incorporation assay; format: cell-based; details: 10 µM; 16h
Description: Cells incubated in vitro with different compounds were treated in DMEM-F12 with reduced serum (2.5% FBS) for 20 min with BrdU (5-bromo-2'-deoxyuridine; 10mg/ml, Sigma), washed and fixed with fresh paraformaldehyde (PFA; 4%, pH 8) followed by acid treatment and neutralization (Melotti et al., 2014, supra). Antibody analyses used anti-BrdU antibodies (supplied by University of Iowa Hybridoma Bank) and rhodamine-coupled anti-mouse secondary antibodies (Invitrogen Molecular Probes). Nuclei were counterstained with DAPI (4',6-diamidino-2-phenylindole; Sigma).

[3] = LS174T, 16 h, read-out: AXIN2 expression
[4] = LS174T, 16 h, read-out: CDKN1A expression
[5] = LS174T, 16 h, read-out: cMYC expression
[6] = Ls174T, 0.5µM, 16h, over DMSO-treated controls, read-out: AXIN2 expression
[7] = Ls174T, 0.5µM, 16h, over DMSO-treated controls, read-out: CDKN1A expression
[8] = Ls174T, 0.5µM, 16h, over DMSO-treated controls, read-out: LGR5 expression
[9] = Ls174T, 0.5µM, 16h, over DMSO-treated controls, read-out: cMYC expression
[10] = Ls174T, 0.5µM, 16h, over DMSO-treated controls
[11] = Ls174T, 5µM, 16h, over DMSO-treated controls

## 2,6-dimethyltetrahydropyran-3,4,5-triol; ethane; 3-(3,14,16-trihydroxy-10,13-dimethyl-1,2,3,4,5,6,7,8,9,11,12,15,16,17-tetradecahydro cyclopenta[a]phenanthren-17-yl)-2H-furan-5-one [CAP3]
WNT-TCF targets [1]; Ls174T, 10 µM, 16h
  AXIN2 expression: 0.7
  CDKN1A expression: 6.3
  LGR5 expression: 0.2
  cMYC expression: 0.2
CC14 cells
  epithelial island morphology: maintained
  concentration at which disrupted morphology phenotype was observed: 5 µM

## CC1=C(C)C(=O)O[C@@H]([C@@](C)(O)[C@]2(O)CC[C@@]3(O)[C@@H]4CC=C5C[C@@H](O[C@@H]6O[C@H](CO)[C@@H](O)[C@H](O)[C@H]6O)CC(=O)[C@]5(C)[C@H]4CC[C@]23C)C1 [CAP1, (14R,17S,20R,22R)-3β,14,17,20-Tetrahydroxy-1-oxo-witha-5,24-dienolide 3-O-β-D-glucopyranoside]
WNT-TCF targets [1]; Ls174T, 10 µM, 16h
  AXIN2 expression: 0.7
  CDKN1A expression: 2.5
  LGR5 expression: 0.2
  cMYC expression: 0.1
WNT-TCF targets [2]
  AXIN2 expression: 1.1
  LGR5 expression: 0.8
  cMYC expression: 1.2
Cell proliferation
  reduction of BrdU incorporation: > 50%
CC14 cells
  epithelial island morphology: maintained
  concentration at which disrupted morphology phenotype was observed: 10 µM

## C[C@@H]1O[C@@H](O[C@H]2CC[C@]3(C=O)[C@H]4CC[C@]5(C)[C@@H](C6=CC(=O)OC6)CC[C@]5(O)[C@@H]4CC[C@]3(O)C2)[C@H](O)[C@H](O)[C@H]1O [Convallatoxin, convallatoxin, reference compound]
WNT-TCF targets [1]; [3]
  fold induction at 0.5 µM: 1.7
WNT-TCF targets [1]; [4]
  fold induction at 0.5 µM: 0.3
WNT-TCF targets [1]; LS174T, 16 h, read-out: LGR5 expression
  fold induction at 0.5 µM: 1.6
WNT-TCF targets [1]; [5]
  fold induction at 0.5 µM: 0.2

## CO[C@H]1C[C@H](O[C@H]2CC[C@]3(C=O)[C@H]4CC[C@]5(C)[C@@H](C6=CC(=O)OC6)CC[C@]5(O)[C@@H]4CC[C@]3(O)C2)O[C@H](C)[C@H]1O [Cymarin, cymarin, reference compound]
WNT-TCF targets [1]; [6]
  fold induction at 0.5 µM: 1
WNT-TCF targets [1]; [7]
  fold induction at 0.5 µM: 0.9
WNT-TCF targets [1]; [8]
  fold induction at 0.5 µM: 0.9
WNT-TCF targets [1]; [9]
  fold induction at 0.5 µM: 1

## C[C@H]1O[C@@H](O[C@H]2[C@@H](O)C[C@H](O[C@H]3[C@@H](O)C[C@H](O[C@H]4CC[C@@]5(C)[C@H](CC[C@@H]6[C@@H]5CC[C@]5(C)[C@@H](C7=CC(=O)OC7)CC[C@]65O)C4)O[C@@H]3C)O[C@@H]2C)C[C@H](O)[C@@H]1O [Digitoxin, digitoxin, reference compound]
WNT-TCF targets [1]; [6]
  fold induction at 0.5 µM: 0.6
WNT-TCF targets [1]; [7]
  fold induction at 0.5 µM: 1.7
WNT-TCF targets [1]; [8]
  fold induction at 0.5 µM: 2.1
WNT-TCF targets [1]; [9]
  fold induction at 0.5 µM: 0.2
WNT-TCF targets [1]; Ls174T, lower doses 100 and 10 nM
  LGR5 repression: lack of repressing on LGR5

## C[C@H]1O[C@@H](O[C@H]2[C@@H](O)C[C@H](O[C@H]3[C@@H](O)C[C@H](O[C@H]4CC[C@@]5(C)[C@H](CC[C@@H]6[C@@H]5C[C@@H](O)[C@]5(C)[C@@H](C7=CC(=O)OC7)CC[C@]65O)C4)O[C@@H]3C)O[C@@H]2C)C[C@H](O)[C@@H]1O [Digoxin, digoxin, reference compound]
WNT-TCF targets [1]; [6]
  fold induction at 0.5 µM: 0.5
WNT-TCF targets [1]; [7]
  fold induction at 0.5 µM: 3
WNT-TCF targets [1]; [8]
  fold induction at 0.5 µM: 6.6
WNT-TCF targets [1]; [9]
  fold induction at 0.5 µM: 1.1

## C[C@]12CC[C@H](O)C[C@H]1CC[C@@H]1[C@@H]2CC[C@]2(C)[C@@H](C3=CC(=O)OC3)[C@@H](O)C[C@]12O [Gitoxigenin, gitoxigenin, reference compound]
WNT-TCF targets [1]; [6]
  fold induction at 0.5 µM: 1
WNT-TCF targets [1]; [7]
  fold induction at 0.5 µM: 0.3
WNT-TCF targets [1]; [8]
  fold induction at 0.5 µM: 0.6
WNT-TCF targets [1]; [9]
  fold induction at 0.5 µM: 0.4

## C[C@H]1O[C@@H](O[C@H]2[C@@H](O)C[C@H](O[C@H]3[C@@H](O)C[C@H](O[C@H]4CC[C@@]5(C)[C@H](CC[C@@H]6[C@@H]5CC[C@]5(C)[C@@H](C7=CC(=O)OC7)[C@@H](O)C[C@]65O)C4)O[C@@H]3C)O[C@@H]2C)C[C@H](O)[C@@H]1O [Gitoxin, gitoxin, reference compound]
WNT-TCF targets [1]; [3]
  fold induction at 0.5 µM: 0.4
WNT-TCF targets [1]; [4]
  fold induction at 0.5 µM: 1.3
WNT-TCF targets [1]; [5]
  fold induction at 0.5 µM: 0.8

## CO[C@H]1[C@H](O)[C@H](O[C@H]2CC[C@@]3(C)[C@H](CC[C@@H]4[C@@H]3CC[C@]3(C)[C@@H](C5=CC(=O)OC5)CC[C@]43O)C2)O[C@@H](C)[C@@H]1O [Neriifolin, neriifolin, reference compound]
WNT-TCF targets [1]; [6]
  fold induction at 0.5 µM: 1.2
WNT-TCF targets [1]; [8]
  fold induction at 0.5 µM: 1.8

## CO[C@H]1C[C@H](O[C@H]2CC[C@@]3(C)[C@H](CC[C@@H]4[C@@H]3CC[C@]3(C)[C@@H](C5=CC(=O)OC5)[C@@H](OC(C)=O)C[C@]43O)C2)O[C@@H](C)[C@@H]1O [Oleandrin, oleandrin, reference compound]
WNT-TCF targets [1]; [6]
  fold induction at 0.5 µM: 1.6
WNT-TCF targets [1]; [7]
  fold induction at 0.5 µM: 1.1
WNT-TCF targets [1]; [8]
  fold induction at 0.5 µM: 0.5
WNT-TCF targets [1]; [9]
  fold induction at 0.5 µM: 0.1

## C[C@@H]1O[C@@H](O[C@H]2C[C@@H](O)[C@]3(CO)[C@H]4[C@H](O)C[C@]5(C)[C@@H](C6=CC(=O)OC6)CC[C@]5(O)[C@@H]4CC[C@]3(O)C2)[C@H](O)[C@H](O)[C@H]1O [Ouabain, ouabain, reference compound]
WNT-TCF targets [1]; [6]
  fold induction at 0.5 µM: 0.8
WNT-TCF targets [1]; [7]
  fold induction at 0.5 µM: 10
WNT-TCF targets [1]; [8]
  fold induction at 0.5 µM: 3.3
WNT-TCF targets [1]; [9]
  fold induction at 0.5 µM: 0.5
WNT-TCF targets [1]; Ls174T, 5µM, 16h, over DMSO-treated controls, read-out: AXIN2 expression
  fold induction at 5 µM: 1
WNT-TCF targets [1]; Ls174T, 5µM, 16h, over DMSO-treated controls, read-out: LGR5 expression
  fold induction at 5 µM: 1.4

## CC1=C(C)C(=O)O[C@@H]([C@](C)(O)[C@H]2CC[C@H]3[C@@H]4[C@@H]5O[C@@H]5[C@@]5(O)CC=CC(=O)[C@]5(C)[C@H]4CC[C@]23C)C1 [Withanolide A, withanolide A, reference compound]
WNT-TCF targets [1]; [10]
  AXIN2 expression: 0.8
  CDKN1A expression: 0.7
  LGR5 expression: 0.8
  cMYC expression: 0.4
WNT-TCF targets [1]; [11]
  AXIN2 expression: 1.8
  LGR5 expression: 1.3

## CC1=C(C)C(=O)O[C@@H]([C@@H](C)[C@H]2CC[C@H]3[C@@H]4[C@@H]5O[C@@H]5[C@@]5(O)CC=CC(=O)[C@]5(C)[C@H]4CC[C@]23C)C1 [Withanolide B, withanolide B, reference compound]
WNT-TCF targets [1]; [10]
  AXIN2 expression: 1.1
  CDKN1A expression: 1.9
  LGR5 expression: 1.3
  cMYC expression: 1.3
WNT-TCF targets [1]; [11]
  AXIN2 expression: 1.3
  LGR5 expression: 1.4
